Laboratory results as given in article PMC4897788, “Design, biological evaluation and 3D QSAR studies of novel dioxin-containing pyrazoline derivatives with thiourea skeleton as selective HER-2 inhibitors” (Scientific Reports, 2016).

Legend:
[1] = Cytotoxicity test (MTT), NIH-3T3; type: cell-based; conditions: mouse, NIH-3T3 mouse embryonic fibroblast cells, NIH3T3
Procedure: The cytotoxic activity in vitro was measured against mouse fibroblast NIH-3T3 cell using the MTT assay. Cells were cultured in a 96-well plate at a density of 5 × 10^5 cells and different concentrations of compounds were respectively added to each well. The incubation was permitted at 37 °C, 5% CO2 atmosphere for 24 h before the cytotoxicity assessments. 20 μL MTT reagent (4 mg/mL) was added per well 4 h before the end of the incubation. Four hours later, the plate was centrifuged at 1200 rcf for 5 min and the supernatants were removed, each well was added with 200 μL DMSO. The absorbance was measured at a wavelength of 490 nm (OD 490 nm) on an ELISA microplate reader. Three replicate wells were used for each concentration and each assay was measured three times, after which the average of IC50 was calculated. The cytotoxicity of each compound was expressed as the concentration of compound that reduced cell viability to 50% (IC50).

EGFR = EGFR (Homo sapiens, UniProt P00533); experiment: EGFR autophosphorylation kinase assay (DELFIA/time-resolved fluorometry)
Procedure: (§2) Both EGFR and HER-2 kinase assays were set up to assess the level of autophosphorylation based on DELFIA/Time-Resolved Fluorometry. […] Then, 10 μL of 5× buffer (containing 20 mM HEPES, 2 mM MnCl2, 100 μM Na3VO4, and 1 mM DTT) and 20 μL of 0.1 mM ATP-50 mM MgCl2 was added for 1 h. Positive and negative controls were included in each plate by incubation of enzyme with or without ATP-MgCl2. At the end of incubation, liquid was aspirated and plates were washed three times with wash buffer. A 75 μL (400 ng) sample of europium-labeled anti-phosphotyrosine antibody was added to each well for another 1 h of incubation. […] The IC50 was obtained from curves of percentage inhibition with eight concentrations of compound. As the contaminants in the enzyme preparation are fairly low, the majority of the signal detected by the anti-phosphotyrosine antibody is from EGFR or HER-2. The experiment was performed for three independent times and in triplicate each time.

[2] = tested on: MCF-7 human breast cancer cell line; experiment: Anti-proliferation assay (MTT), MCF-7; type: cell-based; conditions: MCF7, 24 h
Procedure: (§1) MCF-7 human breast cancer cells was cultured in DMEM/10% fetal bovine serum, in 5% CO2 water saturated atmosphere at 37 °C. MDA-MB-453 human breast cancer cells was cultured in L-15 medium in 100% air at 37 °C. Cell suspensions (10000/mL) were prepared and 100 μL/well dispensed into 96-well plates (Costar) giving 1000 cells/well. The plates were returned to the incubator for 24 h to allow the cells to reattach. These compounds were initially prepared at 20 mM in DMSO. Aliquots (200 μL) were diluted into 20 mL culture medium giving 200 μM, and 10 serial dilutions of 3× prepared. Aliquots (100 μL) of each dilution were added to the wells, giving doses ranging from 100 μM to 0.005 μM. After a further incubated at 37 °C for 24 h in a humidified atmosphere with 5% CO2, the cell viability was assessed by the conventional 3-(4,5-dimethylthiazol-2-yl)-2,5-diphenyltetrazolium bromide (MTT) reduction assay and carried out strictly according to the manufacturer instructions (Sigma). The absorbance at 590 nm was recorded using LX300 Epson Diagnostic micro-plate reader. Then GI50 was calculated using SPSS 13.0 software.

VEGFR-2 = molecular target: T1, VEGFR-2 (Homo sapiens, UniProt P35968); experiment: VEGFR-2 inhibitory assay; type: biochemical
T1 construct: either the phosphorylated or nonphosphorylated form of the VEGFR-2 kinase domain
Procedure: In a 96-well plate, 5 nM/L of either the phosphorylated or nonphosphorylated form of the VEGFR-2 kinase domain was incubated with selected compounds (10-point titration ranging from 4 μM to 0.1 μM), 1 μM/L gastrin substrate, 20 mM/L Tris-HCl, pH 7.5, 10 mM/L MgCl2, 100 mM/L NaCl, 1.5 mM/L EGTA, 1 mM/L DTT, 0.2 mM/L sodium orthovanadate, and 20 μg/mL BSA for 30 min at 25 °C. ATP was added at a final concentration of 11.8 μM and incubated for 60 min at room temperature. Eu-labeled antiphosphotyrosine pT66 antibody (Perkin- Elmer) was then used for detection. The fluorescence at 665 nM was measured with a Wallac Victor plate reader using a time delay of 50 μs. The experiment was performed for three independent times and in triplicate each time.

human erythrocytes = experiment: Hemolysis test; type: cell-based; conditions: lytic concentration 30%
Procedure: Hemolytic activity was assayed using fresh capillary human blood. Erythrocytes were collected by centrifuging the blood three times in chilled phosphate buffered saline (PBS at 4 °C) at 1000 × g for 10 min. The final pellet was resuspended in PBS to give a 2% w/v solution. Using a microtitre plate, 100 μL of the erythrocyte solution was added to dextran, PLL, stearyl-PLL or stearyl-PLL+ LDL (1–1000/μg/mL) in a volume of […]. Samples were then incubated for 3 h and the microtitre plate was centrifuged then at 1000 × g for 10 min and the supernatants (100 μL) transferred into a new microtitre plate. Hemoglobin release was determined spectrophotometrically using a microtitre plate reader (absorbance at 550 nm). Results were expressed as the amount of released hemoglobin induced by the compounds as a percentage of the total. Hemolysis test was tested according to the guide of biological evaluation of medical device (SFDA, China).

FAK = molecular target: T2, FAK (Homo sapiens, UniProt Q05397); experiment: FAK inhibitory assay (Kinase-Glo); type: biochemical
T2 construct: human-recombinant full-length FAK
Procedure: Selected compounds were tested against FAK. In a typical study, human-recombinant full-length FAK was incubated in kinase buffer containing ATP and the substrate for 4 h at room temperature with or without the presence of the corresponding coumpounds. The final concentration of drug as 100, 30, 10, 3 μg/mL. The remaining ATP in solution was then quantified utilizing the Kinase-Glo-luminescence kit (Promega).

HER-2 = HER-2 (Homo sapiens, UniProt P04626); experiment: HER-2 autophosphorylation kinase assay (DELFIA/time-resolved fluorometry); conditions: for SI EGFR/HER-2: selectivity index, IC50 EGFR/IC50 HER-2
Procedure: as §2

[3] = tested on: MDA-MB-453 human breast cancer cell line; experiment: Anti-proliferation assay (MTT), MDA-MB-453; type: cell-based; conditions: 24 h
Procedure: as §1

HER-3 = molecular target: T3, HER-3 (Homo sapiens, UniProt P21860); experiment: HER-3 inhibitory assay; type: biochemical
T3 construct: HER-3 cytoplasmic domain (HER-3-CD, amino acids 665–1339); His6 (N); made in house
T3 sequence (P21860 665-1339): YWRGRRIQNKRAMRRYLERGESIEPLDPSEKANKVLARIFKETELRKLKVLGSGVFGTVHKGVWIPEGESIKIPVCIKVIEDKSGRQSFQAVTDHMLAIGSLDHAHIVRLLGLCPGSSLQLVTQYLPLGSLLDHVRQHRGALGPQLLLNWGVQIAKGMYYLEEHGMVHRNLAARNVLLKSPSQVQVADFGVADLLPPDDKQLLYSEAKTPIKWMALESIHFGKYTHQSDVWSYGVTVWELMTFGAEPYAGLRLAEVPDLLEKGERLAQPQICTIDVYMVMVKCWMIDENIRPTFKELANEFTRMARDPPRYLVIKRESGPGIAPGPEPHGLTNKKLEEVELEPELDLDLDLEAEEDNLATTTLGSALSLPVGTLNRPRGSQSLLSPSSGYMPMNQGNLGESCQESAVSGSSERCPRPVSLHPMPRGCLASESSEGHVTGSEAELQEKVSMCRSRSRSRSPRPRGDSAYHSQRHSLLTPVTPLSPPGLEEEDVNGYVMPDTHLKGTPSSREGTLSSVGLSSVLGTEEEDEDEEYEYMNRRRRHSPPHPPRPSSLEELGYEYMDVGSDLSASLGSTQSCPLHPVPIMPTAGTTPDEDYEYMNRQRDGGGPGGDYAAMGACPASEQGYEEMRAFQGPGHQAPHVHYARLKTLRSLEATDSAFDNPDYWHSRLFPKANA
Procedure: A sequence that encodes (His)6 was located at the 5′ upstream to the HER-2 and EGFR sequences. Sf-9 cells were infected for 3 days for protein expression. Sf-9 cell pellets were solubilized at 0 °C in a buffer at pH 7.4 containing 50 mM HEPES, 10 mM NaCl, 1% Triton, 10 μM ammonium molybdate, 100 μM sodium vanadate, 10 μg/mL aprotinin, 10 μg/mL leupeptin, 10 μg/mL pepstatin, and 16 μg/mL benzamidine, HCl for 20 min followed by 20 min centrifugation. Crude extract supernatant was passed through an equilibrated Ni–NTA superflow packed column and washed with 10 mM and then 100 mM imidazole to remove nonspecifically bound material. Histidine-tagged proteins were eluted with 250 and 500 mM imidazole and dialyzed against 50 mM NaCl, 20 mM HEPES, 10% glycerol and 1 μg/mL each of aprotinin, leupeptin, and pepstatin for 2 h. The entire purification procedure was performed at 4 °C or on ice.
A 1.8 Kb cDNA encoded for human HER-3 cytoplasmic domain (HER-3-CD, amino acids 665–1339) was applied to perform the experiment using the same method as EGFR/HER-2.

T2 sequence (Q05397 whole entry): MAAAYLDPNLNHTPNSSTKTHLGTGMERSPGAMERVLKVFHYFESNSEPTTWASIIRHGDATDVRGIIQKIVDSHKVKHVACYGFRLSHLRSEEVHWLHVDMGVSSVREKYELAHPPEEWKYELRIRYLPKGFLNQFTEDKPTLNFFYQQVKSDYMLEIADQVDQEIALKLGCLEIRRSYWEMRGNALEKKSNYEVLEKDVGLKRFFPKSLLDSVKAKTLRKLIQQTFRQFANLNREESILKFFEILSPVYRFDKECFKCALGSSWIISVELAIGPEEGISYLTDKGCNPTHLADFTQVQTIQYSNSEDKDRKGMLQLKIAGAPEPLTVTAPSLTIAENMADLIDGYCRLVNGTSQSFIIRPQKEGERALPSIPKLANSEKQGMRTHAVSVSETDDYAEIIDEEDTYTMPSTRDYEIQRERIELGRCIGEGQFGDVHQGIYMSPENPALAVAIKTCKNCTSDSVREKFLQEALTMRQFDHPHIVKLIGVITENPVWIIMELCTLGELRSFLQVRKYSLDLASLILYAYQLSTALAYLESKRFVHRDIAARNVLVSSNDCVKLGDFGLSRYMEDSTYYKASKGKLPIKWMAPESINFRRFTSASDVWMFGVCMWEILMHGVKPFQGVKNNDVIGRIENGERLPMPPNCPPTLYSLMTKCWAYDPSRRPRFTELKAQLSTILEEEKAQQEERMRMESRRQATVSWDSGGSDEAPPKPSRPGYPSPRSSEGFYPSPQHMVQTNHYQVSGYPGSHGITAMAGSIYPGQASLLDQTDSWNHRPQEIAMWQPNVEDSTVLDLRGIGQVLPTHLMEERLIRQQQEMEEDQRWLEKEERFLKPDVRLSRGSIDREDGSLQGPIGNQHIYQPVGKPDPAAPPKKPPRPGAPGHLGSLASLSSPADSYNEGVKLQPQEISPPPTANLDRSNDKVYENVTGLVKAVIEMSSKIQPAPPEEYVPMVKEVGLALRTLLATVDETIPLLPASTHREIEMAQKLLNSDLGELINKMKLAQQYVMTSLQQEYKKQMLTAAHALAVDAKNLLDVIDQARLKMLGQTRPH
T1 sequence (P35968 834-1162 limits assumed, species assumed): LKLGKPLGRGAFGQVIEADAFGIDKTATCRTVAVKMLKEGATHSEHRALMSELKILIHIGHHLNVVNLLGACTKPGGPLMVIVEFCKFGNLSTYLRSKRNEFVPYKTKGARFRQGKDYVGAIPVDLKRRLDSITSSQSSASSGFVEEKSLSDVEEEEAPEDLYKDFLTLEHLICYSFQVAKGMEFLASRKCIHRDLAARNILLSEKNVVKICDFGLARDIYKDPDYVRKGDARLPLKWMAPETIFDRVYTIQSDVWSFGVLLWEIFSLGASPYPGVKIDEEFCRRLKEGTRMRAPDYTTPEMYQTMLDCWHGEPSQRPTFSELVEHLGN
Sequence of HER-2 (P04626 676-1245): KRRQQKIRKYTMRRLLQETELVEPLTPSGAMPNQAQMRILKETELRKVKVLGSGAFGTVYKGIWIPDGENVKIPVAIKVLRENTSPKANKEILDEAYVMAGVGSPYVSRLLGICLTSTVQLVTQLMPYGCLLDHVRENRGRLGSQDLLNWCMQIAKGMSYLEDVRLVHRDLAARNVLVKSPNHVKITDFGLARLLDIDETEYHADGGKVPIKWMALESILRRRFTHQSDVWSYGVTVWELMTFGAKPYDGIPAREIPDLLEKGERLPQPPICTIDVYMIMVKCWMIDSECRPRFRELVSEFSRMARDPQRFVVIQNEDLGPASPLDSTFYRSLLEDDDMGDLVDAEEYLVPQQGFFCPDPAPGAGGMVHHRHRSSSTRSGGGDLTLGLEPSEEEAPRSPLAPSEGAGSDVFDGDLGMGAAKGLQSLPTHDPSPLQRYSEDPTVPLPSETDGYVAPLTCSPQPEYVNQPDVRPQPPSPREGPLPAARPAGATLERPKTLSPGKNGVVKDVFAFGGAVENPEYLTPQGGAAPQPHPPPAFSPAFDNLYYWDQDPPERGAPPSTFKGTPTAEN
Sequence of EGFR (P00533 669-1210): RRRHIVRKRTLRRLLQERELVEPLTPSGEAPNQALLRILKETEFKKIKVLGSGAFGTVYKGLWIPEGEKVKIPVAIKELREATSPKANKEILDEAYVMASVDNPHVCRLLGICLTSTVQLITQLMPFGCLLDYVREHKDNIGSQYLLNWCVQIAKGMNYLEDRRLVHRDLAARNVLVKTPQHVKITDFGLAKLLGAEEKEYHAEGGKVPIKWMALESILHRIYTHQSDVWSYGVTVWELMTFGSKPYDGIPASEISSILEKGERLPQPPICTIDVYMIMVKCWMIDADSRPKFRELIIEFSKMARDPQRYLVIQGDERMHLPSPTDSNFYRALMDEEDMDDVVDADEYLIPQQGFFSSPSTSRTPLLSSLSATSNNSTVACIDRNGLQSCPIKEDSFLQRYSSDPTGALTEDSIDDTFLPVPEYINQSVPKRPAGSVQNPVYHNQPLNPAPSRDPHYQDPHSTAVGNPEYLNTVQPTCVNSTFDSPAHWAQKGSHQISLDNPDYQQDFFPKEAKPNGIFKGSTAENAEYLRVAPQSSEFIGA

Work on `NC(=S)N1N=C(c2ccc3c(c2)OCCO3)CC1c1ccc(C(F)(F)F)cc1` (centres unmarked) [Compound C17, 3-(2,3-dihydrobenzo[b][1,4]dioxin-6-yl)-5-(4-(trifluoromethyl)phenyl)-4,5-dihydro-1H-pyrazole-1-carbothioamide] yielded a GI50 at 24 h [1] of 185 ± 3.15 µM, an IC50 (EGFR) of 79.7 ± 7.01 µM and a GI50 [2] of 96.4 ± 9.22 µM. For the same molecule, the IC50 (VEGFR-2) was 5.16 ± 0.5 µM, the “Hemolysis LC30” value (human erythrocytes) was greater than 10000 µg/mL and the IC50 (FAK) was 30.1 ± 2.76 µM. The IC50 (HER-2) was 0.21 ± 0.02 µM, the “SI EGFR/HER-2” value (HER-2) was 379.6 and the GI50 [3] was 0.55 ± 0.02 µM. It also gave an IC50 (HER-3) of 8.45 ± 0.78 µM.
`CSc1ccc(C2CC(c3ccc4c(c3)OCCO4)=NN2C(N)=S)cc1` (centres unmarked) [Compound C15, 3-(2,3-dihydrobenzo[b][1,4]dioxin-6-yl)-5-(4-(methylthio)phenyl)-4,5-dihydro-1H-pyrazole-1-carbothioamide] showed a GI50 at 24 h [1] of 154 ± 1.75 µM, an IC50 (EGFR) of 27.5 ± 2.46 µM and a GI50 [2] of 12.1 ± 1.17 µM. The IC50 (VEGFR-2) was 8.75 ± 0.77 µM, the “Hemolysis LC30” value (human erythrocytes) was greater than 10000 µg/mL and the IC50 (FAK) was 40.3 ± 3.88 µM. For the same molecule, the IC50 (HER-2) was 0.29 ± 0.02 µM, the “SI EGFR/HER-2” value (HER-2) was 94.8 and the GI50 [3] was 0.95 ± 0.08 µM. The IC50 (HER-3) was 17.9 ± 1.48 µM.
Work on `NC(=S)N1N=C(c2ccc3c(c2)OCCO3)CC1c1ccc(Br)cc1` (centres unmarked) [Compound C13, 5-(4-bromophenyl)-3-(2,3-dihydrobenzo[b][1,4]dioxin-6-yl)-4,5-dihydro-1H-pyrazole-1-carbothioamide] yielded a GI50 at 24 h [1] of 148 ± 2.02 µM, an IC50 (EGFR) of 82 ± 7.84 µM and a GI50 [2] of 123 ± 11.2 µM. For the same molecule, the IC50 (VEGFR-2) was 25.8 ± 2.41 µM, the “Hemolysis LC30” value (human erythrocytes) was greater than 10000 µg/mL and the IC50 (FAK) was 36.5 ± 3.42 µM. For the same molecule, the IC50 (HER-2) was 0.8 ± 0.07 µM, the “SI EGFR/HER-2” value (HER-2) was 102.5 and the GI50 [3] was 3.24 ± 0.3 µM. It also gave an IC50 (HER-3) of 2.46 ± 0.23 µM.
With `COc1ccc(C2CC(c3ccc4c(c3)OCCO4)=NN2C(N)=S)cc1` (centres unmarked) [Compound C10, 3-(2,3-dihydrobenzo[b][1,4]dioxin-6-yl)-5-(4-methoxyphenyl)-4,5-dihydro-1H-pyrazole-1-carbothioamide] the GI50 at 24 h [1] was 204 ± 3.05 µM, the IC50 (EGFR) was 37.9 ± 3.75 µM and the GI50 [2] was 18.2 ± 1.71 µM. For the same molecule, the IC50 (VEGFR-2) was 6.91 ± 0.64 µM, the “Hemolysis LC30” value (human erythrocytes) was greater than 10000 µg/mL and the IC50 (FAK) was 64 ± 5.95 µM. The IC50 (HER-2) was 0.08 ± 0.006 µM, the “SI EGFR/HER-2” value (HER-2) was 474.4 and the GI50 [3] was 0.25 ± 0.02 µM. The IC50 (HER-3) was 10.7 ± 0.96 µM.
With `Cc1ccc(C2CC(c3ccc4c(c3)OCCO4)=NN2C(N)=S)cc1` (centres unmarked) [Compound C9, 3-(2,3-dihydrobenzo[b][1,4]dioxin-6-yl)-5-(p-tolyl)-4,5-dihydro-1H-pyrazole-1-carbothioamide] the GI50 at 24 h [1] was 199.1 ± 1.6 µM, the IC50 (EGFR) was 65.2 ± 5.88 µM and the GI50 [2] was 56.2 ± 5.41 µM. The IC50 (VEGFR-2) was 11.5 ± 1.07 µM, the “Hemolysis LC30” value (human erythrocytes) was greater than 10000 µg/mL and the IC50 (FAK) was 36.1 ± 3.21 µM. The IC50 (HER-2) was 0.37 ± 0.03 µM, the “SI EGFR/HER-2” value (HER-2) was 176.1 and the GI50 [3] was 1.38 ± 0.12 µM. For the same molecule, the IC50 (HER-3) was 6.32 ± 0.58 µM.
